The values below come from ChEMBL document CHEMBL1135956 (Bioorg Med Chem Lett, 2002).

The target in assay [1] is T1, Glucagon receptor (Homo sapiens, UniProt P47871). Nature of the assay: Binding affinity of first enantiomer (E1) against human glucagon receptor was determined.
For assay [2], the target named is T1, Glucagon receptor. Nature of the assay: Binding affinity of second diastereomer (D2) against human glucagon receptor was determined.
Assay [3] has as its target T1, Glucagon receptor. The assay can be described thus: Binding affinity of second enantiomer (E2) against human glucagon receptor was determined.
The nature of assay [4]: Compound was evaluated for the functional activity by the inhibition of cAMP production.
In assay [5] the target is T1, Glucagon receptor. The assay can be described thus: Binding affinity of first diastereomer (D1) against human glucagon receptor was determined.

T1 sequence (P47871 whole entry): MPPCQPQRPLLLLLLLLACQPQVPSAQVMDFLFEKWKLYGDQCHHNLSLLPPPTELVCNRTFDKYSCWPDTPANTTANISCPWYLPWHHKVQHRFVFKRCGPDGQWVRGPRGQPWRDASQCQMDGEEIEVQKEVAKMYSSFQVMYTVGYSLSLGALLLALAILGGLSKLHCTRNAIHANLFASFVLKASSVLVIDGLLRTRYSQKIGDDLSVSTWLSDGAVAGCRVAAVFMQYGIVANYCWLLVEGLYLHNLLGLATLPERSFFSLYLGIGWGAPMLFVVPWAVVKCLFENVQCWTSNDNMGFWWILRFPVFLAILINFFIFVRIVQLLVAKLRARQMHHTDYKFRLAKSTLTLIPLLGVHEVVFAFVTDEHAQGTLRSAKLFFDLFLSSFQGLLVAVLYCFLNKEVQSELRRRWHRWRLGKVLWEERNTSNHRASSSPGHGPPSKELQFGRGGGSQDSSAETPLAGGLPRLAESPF

On to `CCCc1c(C(C)C)nc(C(C)C)c(C(C)O)c1-c1ccc(F)cc1O` (centres undefined), for which the IC50 at Glucagon receptor [1] amounted to 8000 nM; on Glucagon receptor [2] it was 1000 nM; at Glucagon receptor [3] it was 10 nM; in assay [4], 6.5 nM; on Glucagon receptor [5], 18 nM.

In the case of `CCCc1c(C(C)C)nc(C(C)C)c(C(C)O)c1-c1ccccc1O` (centres undefined), the half-maximal inhibitory concentration (IC50) at Glucagon receptor [1] turned out to be 190 nM; at Glucagon receptor [2], 1100 nM; on Glucagon receptor [3], 25 nM; at Glucagon receptor [5], 40 nM.

`CCCCCc1c(C(C)C)nc(C(C)C)c(C(C)O)c1-c1ccc(F)cc1O` (centres undefined): the 50% inhibitory concentration (IC50) at Glucagon receptor [1] is 8000 nM; on Glucagon receptor [2] it was 2200 nM; at Glucagon receptor [3], 12 nM; at Glucagon receptor [5] it was 30 nM.

With `CCCCc1c(C(C)C)nc(C(C)C)c(C(C)O)c1-c1ccc(F)cc1O` (centres undefined), the IC50 at Glucagon receptor [2] turned out to be 1000 nM; on Glucagon receptor [5] it was 28 nM.

For `CCc1c(C(C)C)nc(C(C)C)c(C(C)O)c1-c1ccc(F)cc1O` (centres undefined), the IC50 at Glucagon receptor [1] turned out to be 5000 nM; on Glucagon receptor [2], 2000 nM; on Glucagon receptor [3] it was 16 nM; at Glucagon receptor [5], 20 nM.
